In experiment [1] the target is purified human Factor XIa (Homo sapiens (Human), UniProt P03951). Put plainly: Factor XIa Assay. Particulars: Factor XIa inhibition; substrate Z-Gly-Pro-Arg-AFC, pH 7.4; read-out: hFXIa IC50. It counts as biochemical. Here is the method:
The effectiveness of a compound of the present invention as an inhibitor of Coagulation Factor XIa can be determined using a relevant purified serine protease, and an appropriate synthetic substrate. The rate of hydrolysis of the chromogenic or fluorogenic substrate by the relevant serine protease was measured both in the absence and presence of compounds of the present invention. Assays were conducted at room temperature or at 37° C. […] A decrease in the rate of fluorescence change in the presence of inhibitor is indicative of enzyme inhibition. Such methods are known to one skilled in the art. […]
Factor XIa determinations were made in 50 mM HEPES buffer at pH 7.4 containing 150 mM NaCl, 5 mM CaCl2, and 0.1% PEG 8000 (polyethylene glycol; JT Baker or Fisher Scientific). Determinations were made using purified human Factor XIa at a final concentration of 40 pM (Sekisui Diagnostics) and the synthetic substrate, Z-Gly-Pro-Arg-AFC, TFA salt (Sigma #C0980) at a concentration of 100 μM.
Activity assays were performed by diluting a stock solution of substrate at least tenfold to a final concentration ≤0.1 Km into a solution containing enzyme or enzyme equilibrated with inhibitor. Times required to achieve equilibration between enzyme and inhibitor were determined in control experiments. Initial velocities of product formation in the absence (Vo) or presence of inhibitor (Vi) were measured. Assuming competitive inhibition, and that unity is negligible compared Km/[S], [I]/e, and [I]/e (where [S], [I], and e respectively represent the total concentrations, of substrate, inhibitor and enzyme), the equilibrium constant (Ki) for dissociation of the inhibitor from the enzyme can be obtained from the dependence of Vo/Vi on [I] shown in the following equation. Vo/Vi=1+[I]/Ki

Experiment [2] addresses purified Human plasma kallikrein (Homo sapiens (Human), UniProt P03952). Put plainly: Kallikrein Assay. The experiment is classed as biochemical. Particulars: table titled Kalikrein inhibition (column head prints hFXIa), substrate Acetyl-K-P-R-AFC, pH 7.4. The procedure:
The effectiveness of a compound of the present invention as an inhibitor of Kallikrein can be determined using a relevant purified serine protease, and an appropriate synthetic substrate. The rate of hydrolysis of the chromogenic or fluorogenic substrate by the relevant serine protease was measured both in the absence and presence of compounds of the present invention. Assays were conducted at room temperature or at 37° C. […] A decrease in the rate of fluorescence change in the presence of inhibitor is indicative of enzyme inhibition. Such methods are known to one skilled in the art. The results of this assay are expressed as the inhibitory constant, Ki.
Kallikrein determinations were made in 50 mM HEPES buffer at pH 7.4 containing 150 mM NaCl, 5 mM CaCl2, and 0.1% PEG 8000 (polyethylene glycol; Fisher Scientific). Determinations were made using purified Human plasma kallikrein at a final concentration of 0.5 nM (Enzyme Research Laboratories) and the synthetic substrate, Acetyl-K-P-R-AFC (Sigma # C6608) at a concentration of […].
Activity assays were performed by diluting a stock solution of substrate at least tenfold to a final concentration ≤0.2 Km into a solution containing enzyme or enzyme equilibrated with inhibitor. Times required to achieve equilibration between enzyme and inhibitor were determined in control experiments. The reactions were performed under linear progress curve conditions and fluorescence increase measured at 405 Ex/510 Em nm. Values were converted to percent inhibition of the control reaction (after subtracting 100% Inhibition value). IC50 was determined by inflection point from a four parameter logistic curve fit. Ki was calculated using the Cheng Prusoff equation, Ki=IC50/(1+([S]/Km)).

The structures appear in SMILES notation.

Chain of purified human Factor XIa (P03951 388-625): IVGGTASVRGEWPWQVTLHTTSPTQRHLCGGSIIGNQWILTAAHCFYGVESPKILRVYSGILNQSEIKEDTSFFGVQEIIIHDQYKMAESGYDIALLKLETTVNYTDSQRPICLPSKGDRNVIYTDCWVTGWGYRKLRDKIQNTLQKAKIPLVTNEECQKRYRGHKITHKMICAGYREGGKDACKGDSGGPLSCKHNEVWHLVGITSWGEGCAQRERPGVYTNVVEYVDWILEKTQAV
Chain of purified human Factor XIa (P03951 19-387 partner): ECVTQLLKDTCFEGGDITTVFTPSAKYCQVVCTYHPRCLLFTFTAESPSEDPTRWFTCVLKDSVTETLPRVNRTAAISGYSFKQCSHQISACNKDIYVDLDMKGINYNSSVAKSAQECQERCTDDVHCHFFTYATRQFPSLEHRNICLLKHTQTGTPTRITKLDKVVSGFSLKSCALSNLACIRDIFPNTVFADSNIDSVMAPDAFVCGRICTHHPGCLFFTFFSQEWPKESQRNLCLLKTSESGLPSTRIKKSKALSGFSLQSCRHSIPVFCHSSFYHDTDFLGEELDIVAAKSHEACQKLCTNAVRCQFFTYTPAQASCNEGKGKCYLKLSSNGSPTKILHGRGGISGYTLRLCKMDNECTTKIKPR
Chain of purified Human plasma kallikrein (P03952 391-638): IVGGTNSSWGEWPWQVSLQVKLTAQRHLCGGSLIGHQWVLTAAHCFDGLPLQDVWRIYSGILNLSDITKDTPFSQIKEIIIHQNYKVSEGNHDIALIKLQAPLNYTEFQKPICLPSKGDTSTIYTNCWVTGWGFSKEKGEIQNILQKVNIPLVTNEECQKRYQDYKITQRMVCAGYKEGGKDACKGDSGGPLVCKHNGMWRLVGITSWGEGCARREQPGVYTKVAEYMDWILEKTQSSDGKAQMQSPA
Chain of purified Human plasma kallikrein (P03952 20-390 partner): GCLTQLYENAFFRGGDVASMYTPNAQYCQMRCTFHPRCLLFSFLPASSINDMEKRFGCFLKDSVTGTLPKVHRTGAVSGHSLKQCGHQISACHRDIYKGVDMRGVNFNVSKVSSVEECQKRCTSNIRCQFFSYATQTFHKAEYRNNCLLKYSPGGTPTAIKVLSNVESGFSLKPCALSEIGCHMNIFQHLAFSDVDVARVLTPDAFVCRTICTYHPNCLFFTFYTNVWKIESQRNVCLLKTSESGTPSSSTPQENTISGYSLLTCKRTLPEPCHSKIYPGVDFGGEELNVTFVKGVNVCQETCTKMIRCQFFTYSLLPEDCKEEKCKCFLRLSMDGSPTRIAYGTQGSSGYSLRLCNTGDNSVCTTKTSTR

One may read the IC50 as the concentration at which inhibition is half-maximal. Consider `O=C(O)c1ccc(NC(=O)C2(O)CC(O)c3cc(-c4cc(Cl)ccc4-n4cnnn4)c[n+]([O-])c32)cc1` (stereo not shown) [Example 8, 4-[({3-[5-Chloro-2-(1H-tetrazol-1-yl)phenyl]-5,7-dihydroxy-1-oxido-6,7-dihydro-5H-cyclopenta[b]pyridin-7-yl}carbonyl)amino]benzoic acid], for which the half-inhibitory concentration (IC50) in experiment [1] was 4.2 nM; in experiment [2], 816 nM.
In the case of `O=C(O)c1ccc(NC(=O)C2(O)CCc3cc(-c4cc(Cl)ccc4-n4cnnn4)c[n+]([O-])c32)cc1` (stereo not shown) [Example 19, 4-[({3-[5-Chloro-2-(1H-tetrazol-1-yl)phenyl]-7-hydroxy-1-oxido-6,7-dihydro-5H-cyclopenta[b]pyridin-7-yl}carbonyl)amino]benzoic acid], the IC50 stood at 6 nM in experiment [1] and 1370 nM in experiment [2].

The values are drawn from patent publication US10123995B2, “Factor XIa inhibitors” (MERCK SHARP & DOHME CORP., priority 2015, dated 2018).
